In US9949970B2, “Synthesis of new benzothiazole derivatives as potential anti-tubercular agents” (priority 2010, dated 2018):
In brackets after ≈: the same amount, converted by molar mass. Read-outs that look alike come from different tables or passages of the source.

Experiments:
M. tuberculosis H37Rv [1] = settings: closest benzothiazole compounds; cited from earlier work
M. tuberculosis H37Rv [2] = experiment: Antimycobacterial activity: MIC by broth microdilution / Nitrate Reductase Assay; assay type: cell-based, Mycobacterium tuberculosis; settings: lowest concentration showing no colour change (NRA)
AML-12 cell lines = experiment: Cytotoxicity MTT assay on AML-12 cell lines; assay type: cell-based; settings: for Cytotoxicity: AML-12 cell line, MTT, 24 hrs, test material 2-100 μg/ml; for Cytotoxicity (result in words): AML-12 cell lines, MTT assay
Protocol: The potent compounds 3j, 4e, 6a, 6f, 6g, 6i, and 6p were evaluated for cytotoxic effect on AML-12 cell lines using MTT assay, in a 96 well plate format. Cells were incubated in Dulbecco's Modified Eagle's Medium (DMEM) containing 10% fetal calf serum (FCS) with the test material (2-100 μg/ml) for 24 hrs. at 37° C. in CO2 incubator. After the completion of incubation 3-(4,5-dimethylthiazol-2-yl)-2,5-diphenyltetrazolium bromide (MTT) was added and cells were further incubated for 3 h at 37° C. in CO2 incubator. Formation of formazan salt by mitochondrial dehydrogenases, and was determined by Elisa reader at 565 nm (Multiskan Spectrum; Thermo Electron Corporation, USA). The percentage cytotoxicity was calculated with respect to the untreated cells.

M. tuberculosis (H37Rv) = experiment: In vivo efficacy in lungs of infected mice; parameters: species or system Swiss albino mice; settings: for In vivo activity (result in words) / Decrease of bacterial load in lung with late control (protections): mice; for In vivo activity (result in words): lung; for Decrease of bacterial load in lung with late control (protections): versus late control; for Log10 CFU/left Lung: infected female Swiss albino mice
[3] = Mycobacterium tuberculosis, H37RV, read-out: MIC
[4] = Mycobacterium tuberculosis, H37RV

COC(=O)[C@H](NC(=O)c1cc(COc2ccc3nc(C)sc3c2)on1)c1ccccc1
MIC (M. tuberculosis H37Rv [1]): 1.9 mg/L (≈ 4.34 µM)

COC(=O)C(NC(=O)c1cc(COc2ccc3nc(C)sc3c2)on1)c1ccccc1 (stereo not shown)
MIC (M. tuberculosis H37Rv [1]): 1.4 mg/L (≈ 3.2 µM)

CC(=NNC1CSC(c2ccc3c(c2)CCC3)=N1)c1ccc(C)cc1 (stereo not shown)
MIC (M. tuberculosis H37Rv [1]): >6.5 mg/L

O=[N+]([O-])c1ccc(C=NNc2nc3ccccc3s2)o1 [Compound 3a, 5-nitro-2-furaldehyde 2-(1,3-benzothiazole-2-yl)hydrazone]
MIC (M. tuberculosis H37Rv [2]; [3]): > 16 mg/L

O=[N+]([O-])c1ccc(C=NNc2nc3ccccc3s2)s1 [Compound 3b, 5-nitro-2-thiophenecarbaldehyde 2-(1,3-benzothiazole-2-yl)hydrazone]
MIC (M. tuberculosis H37Rv [2]; [3]): > 16 mg/L

Cc1ccc2nc(NN=Cc3ccc([N+](=O)[O-])o3)sc2c1 [Compound 3c, 5-nitro-2-furaldehyde 2-(6-methyl-1,3-benzothiazole-2-yl)hydrazone]
MIC (M. tuberculosis H37Rv [2]; [3]): > 16 mg/L

Cc1ccc2nc(NN=Cc3ccc([N+](=O)[O-])s3)sc2c1 [Compound 3d, 5-nitro-2-thiophenecarbaldehyde 2-(6-methyl-1,3-benzothiazole-2-yl)hydrazone]
MIC (M. tuberculosis H37Rv [2]; [3]): > 16 mg/L

COc1ccc2nc(NN=Cc3ccc([N+](=O)[O-])o3)sc2c1 [Compound 3e, 5-nitro-2-furaldehyde 2-(6-methoxy-1,3-benzothiazole-2-yl)hydrazone]
MIC (M. tuberculosis H37Rv [2]; [3]): > 16 mg/L

COc1ccc2nc(NN=Cc3ccc([N+](=O)[O-])s3)sc2c1 [Compound 3f, 5-nitro-2-thiophenecarbaldehyde 2-(6-methoxy-1,3-benzothiazole-2-yl)hydrazone]
MIC (M. tuberculosis H37Rv [2]; [3]): > 16 mg/L

O=[N+]([O-])c1ccc(C=NNc2nc3ccc(C(F)(F)F)cc3s2)o1 [Compound 3g, 5-nitro-2-furaldehyde 2-(6-trifluoromethyl-1,3-benzothiazole-2-yl)hydrazone]
MIC (M. tuberculosis H37Rv [2]; [3]): > 16 mg/L

O=[N+]([O-])c1ccc(C=NNc2nc3ccc(C(F)(F)F)cc3s2)s1 [Compound 3h, 5-nitro-2-thiophenecarbaldehyde 2-(6-trifluoromethyl-1,3-benzothiazole-2-yl)hydrazone]
MIC (M. tuberculosis H37Rv [2]; [3]): > 16 mg/L

O=[N+]([O-])c1ccc(C=NNc2nc3ccc(OC(F)(F)F)cc3s2)o1 [Compound 3i, 5-nitro-2-furaldehyde 2-(6-trifluoromethoxy-1,3-benzothiazole-2-yl)hydrazone]
MIC (M. tuberculosis H37Rv [2]; [3]): > 16 mg/L

O=[N+]([O-])c1ccc(C=NNc2nc3ccc(OC(F)(F)F)cc3s2)s1 [Compound 3j, 5-nitro-2-thiophenecarbaldehyde 2-(6-trifluoromethoxy-1,3-benzothiazole-2-yl)hydrazone]
MIC (M. tuberculosis H37Rv [2]; [3]): 0.5 to 8 mg/L (≈ 1.29 to 20.6 µM)
MIC (M. tuberculosis H37Rv [2]): 1 mg/L (≈ 2.57 µM)
Cytotoxicity (AML-12 cell lines): >100 µg/mL
Cytotoxicity (result in words) (AML-12 cell lines): no cytotoxicity

O=[N+]([O-])c1ccc(C=NNc2nc3ccc(F)cc3s2)o1 [Compound 3k, 5-nitro-2-furaldehyde 2-(6-fluoro-1,3-benzothiazole-2-yl)hydrazone]
MIC (M. tuberculosis H37Rv [2]; [3]): > 16 mg/L

O=[N+]([O-])c1ccc(C=NNc2nc3ccc(F)cc3s2)s1 [Compound 3l, 5-nitro-2-thiophenecarbaldehyde 2-(6-fluoro-1,3-benzothiazole-2-yl)hydrazone]
MIC (M. tuberculosis H37Rv [2]; [3]): > 16 mg/L

O=[N+]([O-])c1ccc(C=NNc2nc3ccc(Cl)cc3s2)o1 [Compound 3m, 5-nitro-2-furaldehyde 2-(6-chloro-1,3-benzothiazole-2-yl)hydrazone]
MIC (M. tuberculosis H37Rv [2]; [3]): 16 mg/L (≈ 49.6 µM)

O=[N+]([O-])c1ccc(C=NNc2nc3ccc(Cl)cc3s2)s1 [Compound 3n, 5-nitro-2-thiophenecarbaldehyde 2-(6-chloro-1,3-benzothiazole-2-yl)hydrazone]
MIC (M. tuberculosis H37Rv [2]; [3]): > 16 mg/L

O=[N+]([O-])c1ccc2nc(NN=Cc3ccc([N+](=O)[O-])o3)sc2c1 [Compound 3o, 5-nitro-2-furaldehyde 2-(6-nitro-1,3-benzothiazole-2-yl)hydrazone]
MIC (M. tuberculosis H37Rv [2]; [4]): 16 mg/L (≈ 48 µM)

O=[N+]([O-])c1ccc2nc(NN=Cc3ccc([N+](=O)[O-])s3)sc2c1 [Compound 3p, 5-nitro-2-thiophenecarbaldehyde 2-(6-nitro-1,3-benzothiazole-2-yl)hydrazone]
MIC (M. tuberculosis H37Rv [2]; [4]): > 16 mg/L

O=C(NNc1nc2ccccc2s1)c1ccc([N+](=O)[O-])o1 [Compound 4a, N′2-(1,3-benzothiazol-2-yl)-5-nitro-2-furancarbohydrazide]
MIC (M. tuberculosis H37Rv [2]; [3]): > 16 mg/L

Cc1ccc2nc(NNC(=O)c3ccc([N+](=O)[O-])o3)sc2c1 [Compound 4b, N′2-(6-methyl-1,3-benzothiazol-2yl)-5-nitro-2-furancarbohydrazide]
MIC (M. tuberculosis H37Rv [2]; [3]): > 16 mg/L

COc1ccc2nc(NNC(=O)c3ccc([N+](=O)[O-])o3)sc2c1 [Compound 4c, N′2-(6-methoxy-1,3-benzothiazol-2-yl)-5-nitro-2-furancarbohydrazide]
MIC (M. tuberculosis H37Rv [2]; [3]): > 16 mg/L

O=C(NNc1nc2ccc(C(F)(F)F)cc2s1)c1ccc([N+](=O)[O-])o1 [Compound 4d, N′2-(6-trifluoromethyl-1,3-benzothiazol-2-yl)-5-nitro-2-furancarbohydrazide]
MIC (M. tuberculosis H37Rv [2]; [3]): > 16 mg/L

O=C(NNc1nc2ccc(OC(F)(F)F)cc2s1)c1ccc([N+](=O)[O-])o1 [Compound 4e, N′2-(6-trifluoromethoxy-1,3-benzothiazol-2-yl)-5-nitro-2-furanecarbohydrazide]
Cytotoxicity (AML-12 cell lines): >100 µg/mL
Cytotoxicity (result in words) (AML-12 cell lines): no cytotoxicity

O=C(NNc1nc2ccc(F)cc2s1)c1ccc([N+](=O)[O-])o1 [Compound 4f, N′2-(6-fluoro-1,3-benzothiazol-2-yl)-5-nitro-2-furanecarbohydrazide]
MIC (M. tuberculosis H37Rv [2]; [3]): > 16 mg/L

O=C(NNc1nc2ccc(Cl)cc2s1)c1ccc([N+](=O)[O-])o1 [Compound 4g, N′2-(6-chloro-1,3-benzothiazol-2-yl)-5-nitro-2-furanecarbohydrazide]
MIC (M. tuberculosis H37Rv [2]; [3]): > 16 mg/L

O=C(NNc1nc2ccc([N+](=O)[O-])cc2s1)c1ccc([N+](=O)[O-])o1 [Compound 4h, N′2-(6-nitro-1,3-benzothiazol-2-yl)-5-nitro-2-furanecarbohydrazide]
MIC (M. tuberculosis H37Rv [2]; [4]): 16 mg/L (≈ 45.8 µM)

O=C(Nc1nc2ccc(NC(=O)c3ccc([N+](=O)[O-])o3)cc2s1)c1ccccc1 [Compound 6a, N2-[2-(benzoylamino)-1,3-benzothiazol-6-yl]-5-nitrofuramide]
MIC (M. tuberculosis H37Rv [2]; [3]): 0.5 to 8 mg/L (≈ 1.22 to 19.6 µM)
MIC (M. tuberculosis H37Rv [2]): 1 mg/L (≈ 2.45 µM)
Cytotoxicity (AML-12 cell lines): >100 µg/mL
Cytotoxicity (result in words) (AML-12 cell lines): no cytotoxicity

O=C(Nc1nc2ccc(NC(=O)c3ccc([N+](=O)[O-])o3)cc2s1)c1ccc(F)cc1 [Compound 6f, N2-{2-[(4-fluorobenzoyl)amino]-1,3-benzothiazol-6-yl}-5-nitrofuramide]
MIC (M. tuberculosis H37Rv [2]): 0.5 mg/L (≈ 1.17 µM)
Cytotoxicity (AML-12 cell lines): >100 µg/mL
Cytotoxicity (result in words) (AML-12 cell lines): no cytotoxicity
In vivo activity (result in words) (M. tuberculosis (H37Rv); 25 mg/kg): bacteriostatic activities
Decrease of bacterial load in lung with late control (protections) (M. tuberculosis (H37Rv); 25 mg/kg): 1.0
Log10 CFU/left Lung (M. tuberculosis (H37Rv); 25 mg/kg): 6.0 ± 0.13

O=C(Nc1nc2ccc(NC(=O)c3ccc([N+](=O)[O-])o3)cc2s1)c1ccc(Cl)cc1 [Compound 6g, N2-{2-[(4-chlorobenzoyl)amino]-1,3-benzothiazol-6-yl}-5-nitrofuramide]
MIC (M. tuberculosis H37Rv [2]): 0.5 mg/L (≈ 1.13 µM)
Cytotoxicity (AML-12 cell lines): >100 µg/mL
Cytotoxicity (result in words) (AML-12 cell lines): no cytotoxicity
In vivo activity (result in words) (M. tuberculosis (H37Rv); 25 mg/kg): bacteriostatic activities
Decrease of bacterial load in lung with late control (protections) (M. tuberculosis (H37Rv); 25 mg/kg): 1.0
Log10 CFU/left Lung (M. tuberculosis (H37Rv); 25 mg/kg): 6.1 ± 0.48

O=C(Nc1ccc2nc(NC(=O)c3ccc(F)cc3F)sc2c1)c1ccc([N+](=O)[O-])o1 [Compound 6i, N2-{2-[(2,4-difluorobenzoyl)amino]-1,3-benzothiazol-6-yl}-5-nitrofuramide]
MIC (M. tuberculosis H37Rv [2]): 0.5 mg/L (≈ 1.13 µM)
Cytotoxicity (AML-12 cell lines): >100 µg/mL
Cytotoxicity (result in words) (AML-12 cell lines): no cytotoxicity
In vivo activity (result in words) (M. tuberculosis (H37Rv); 25 mg/kg): bacteriostatic activities
Decrease of bacterial load in lung with late control (protections) (M. tuberculosis (H37Rv); 25 mg/kg): 1.0
Log10 CFU/left Lung (M. tuberculosis (H37Rv); 25 mg/kg): 6.3 ± 0.37

O=C(Nc1nc2ccc(NC(=O)c3ccc([N+](=O)[O-])o3)cc2s1)c1cnccn1 [Compound 6p, N2-(6-{[(5-nitro-2-furyl)carbonyl]amino}-1,3-benzothiazol-2-yl)-2-pyrazinecarboxamide]
MIC (M. tuberculosis H37Rv [2]): 1 mg/L (≈ 2.44 µM)
Cytotoxicity (AML-12 cell lines): >100 µg/mL
Cytotoxicity (result in words) (AML-12 cell lines): no cytotoxicity

NNC(=O)c1ccncc1 [INH, Isoniazid, reference compound]
MIC (M. tuberculosis H37Rv [2]; [3]): 0.5 mg/L (≈ 3.65 µM)

CO[C@H]1/C=C/O[C@@]2(C)Oc3c(C)c(O)c4c(O)c(c(/C=N/N5CCN(C)CC5)c(O)c4c3C2=O)NC(=O)/C(C)=C\C=C\[C@H](C)[C@H](O)[C@@H](C)[C@@H](O)[C@@H](C)[C@H](OC(C)=O)[C@@H]1C [RMP, Rifampicin, reference compound]
MIC (M. tuberculosis H37Rv [2]; [3]): 0.25 mg/L (≈ 0.304 µM)
Log10 CFU/left Lung (M. tuberculosis (H37Rv); 20 mg/kg): 2.0 ± 0.41

N2-(2-{[(E)-3-(4-chlorophenyl)-2-propenoyl]amino}-1,3-benzothiazol-6-yl)-5-nitro-2-furamide [Compound 6w]
Cytotoxicity (AML-12 cell lines): >100 µg/mL
Cytotoxicity (result in words) (AML-12 cell lines): no cytotoxicity

N2-(2-{[(E)-3-phenyl-2-propenoyl]amino}-1,3-benzothiazol-6-yl}-5-nitro-2-furamide [Compound 6q]
MIC (M. tuberculosis H37Rv [2]): 8.0 mg/L
Cytotoxicity (AML-12 cell lines): >100 µg/mL
Cytotoxicity (result in words) (AML-12 cell lines): no cytotoxicity

N3-(6-{[(5-nitro-2-furyl)carbonyl]amino}-1,3-benzothiazol-2-yl)nicotinamide [Compound 6o]
MIC (M. tuberculosis H37Rv [2]): 4.0 mg/L
Cytotoxicity (AML-12 cell lines): >100 µg/mL
Cytotoxicity (result in words) (AML-12 cell lines): no cytotoxicity
